Reference: article PMC10675597, “Design, Synthesis, and Antisickling Investigation of a Thiazolidine Prodrug of TD-7 That Prolongs the Duration of Action of Antisickling Aromatic Aldehyde” (Pharmaceutics, 2023)

How the values were obtained:
[1] = biological target: T1, Hb in human normal whole blood (Homo sapiens, UniProt P69905); test: In-vitro time-dependent oxygen equilibrium study (P50 shift); type: cell-based; conditions: 2 mM, normal whole blood 30% hematocrit
T1 construct: normal whole blood (AA) was collected from adult donors; from tissue; host or cells: normal (AA) human whole blood from adult donors, 30% hematocrit
T1 sequence (P69905 2-142 limits assumed): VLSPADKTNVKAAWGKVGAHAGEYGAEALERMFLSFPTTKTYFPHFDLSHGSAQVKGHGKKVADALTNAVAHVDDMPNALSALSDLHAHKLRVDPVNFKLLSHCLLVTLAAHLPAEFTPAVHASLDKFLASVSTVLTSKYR
T1 sequence (P68871 2-147 partner limits assumed): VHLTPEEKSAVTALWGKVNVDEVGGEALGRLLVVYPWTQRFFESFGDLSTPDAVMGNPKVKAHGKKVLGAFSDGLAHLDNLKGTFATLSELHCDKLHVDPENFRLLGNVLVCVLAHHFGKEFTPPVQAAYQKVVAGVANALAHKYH
Experimental: An oxygen equilibrium curve study was conducted in a time-dependent manner to determine the effect and duration of Pro-7 on Hb affinity for oxygen (P50 shift) following standard procedure. Pro-7, along with the controls TD-7 and DMSO were used for the studies with normal whole blood sample (30% hematocrit). Each compound was incubated with the blood at a final concentration of 2 mM, and aliquot samples were taken at 1, 3, 6, 12 and 24 h and further incubated in IL 237 tonometer (Instrumentation Laboratories, Inc., Lexington, MA, USA) for 10 min at 37 °C, and allowed to equilibrate at oxygen tensions 6, 20, and 40 mmHg. The samples were then aspirated into a Radiometer ABL 800 Automated Blood Gas Analyzer (Copenhagen, Denmark ) to determine the pH, partial pressure of CO2 (pCO2), partial pressure of oxygen (pO2), and Hb oxygen saturation values (SO2). The measured values of pO2 (mmHg) and SO2 at each pO2 value were then subjected to a non-linear regression analysis using the program Scientist (Micromath, Salt Lake City, UT, USA) to estimate P50 as a measure of Hb oxygen affinity as previously reported.
(§1) Human normal whole blood was used to assess the degree of Hb modification and Hb oxygen affinity (P50 shift), while sickle blood was used to investigate RBC sickling inhibition. Pro-7 and the positive control TD-7 were incubated with normal whole blood suspensions. […] For the sickling inhibition study, Pro-7 and the positive control TD-7 were incubated with SS blood suspensions under hypoxic conditions (2.5% O2/97.5% N2), and aliquot blood samples were drawn at three time points (1, 3 and 6 h) and used for assessing RBC morphology. The results summarized in Table 1 and Figure 4A–C show time-dependent effects for all three pharmacodynamic activities. […] Even at the end of the 24-h experiment, Pro-7 activity was still increasing.

[2] = tested on: SS cells (homozygous sickle cell blood); test: In-vitro time-dependent RBC sickling inhibition under hypoxia; type: cell-based, human; conditions: 2 mM, SS cells 20% hematocrit, hypoxia (4% oxygen/96% nitrogen)
Experimental: Red blood cell sickling inhibition studies with Pro-7 and the control TD-7 was conducted using previously reported procedure. Blood suspensions from subjects with homozygous SCD (hematocrit 20%) were incubated under air in the absence or presence of test compounds at 37 °C for 1 h to ensure that binding has attained equilibrium. […] Aliquot samples were fixed with 2% glutaraldehyde solution without exposure to air, and then subjected to microscopic morphological analysis.
Human normal whole blood was used to assess the degree of Hb modification and Hb oxygen affinity (P50 shift), while sickle blood was used to investigate RBC sickling inhibition. […] The results summarized in Table 1 and Figure 4A–C show time-dependent effects for all three pharmacodynamic activities. […] Even at the end of the 24-h experiment, Pro-7 activity was still increasing.

[3] = In-vitro stability in different pH buffers (aldehyde peak absorbance at 349 nm); type: physicochemical; conditions: for Stability (absorbance of aldehyde peak at 349 nm): 1 mM, 37 °C
Experimental: The stability of Pro-7 and the control TD-7 in different pH buffers (PBS buffer at pH 7.4, KCl·HCl buffer at pH 2.0, and Tris buffer at pH 8.0) was evaluated over time as previously reported. The ionic strength of all buffers was kept constant at 150 mM. A 200 mM stock solution of each compound was prepared using anhydrous DMSO. 1 mM solutions of each of the test compounds TD-7 and Pro-7 were prepared in duplicate for each of the three different pH buffers. […]
An in-vitro time-dependent (1–96 h) stability study of Pro-7 was conducted to inform the formulation of the prodrug. The study was conducted at three different pHs: 2.0, 7.4 and 8.0, which mimic stomach, blood and intestinal pH conditions, respectively. The presence of TD-7 or the rate of appearance of TD-7 upon dissociation of Pro-7 was monitored at 349 nm spectrophotometrically.

[4] = biological target: T1, Hb in human normal whole blood; test: In-vitro time-dependent Hb modification (Hb adduct formation), cation-exchange HPLC; type: cell-based; conditions: 2 mM, normal whole blood 30% hematocrit
Experimental: Pro-7 and the control TD-7 were used to conduct time-dependent Hb modification (Hb adduct formation) studies using normal whole blood as previously reported. A 200 mM stock solution of each compound was made with DMSO. In a 96-well 1.2 mL polypropylene deep-well plate (Thermo Scientific, Hampshire, UK), 2.0 mM concentration of each compound was added to 600 μL of whole blood (30% hematocrit), which was then incubated at 37 °C for 24 h with shaking (at 140 rpm). A control sample was supplemented only with an equivalent volume of DMSO. At different time points (0–24 h), 50 μL aliquots of this mixture were withdrawn from each well using a multichannel pipette and added to respective tubes containing 50 μL of sodium cyanoborohydride (NaBH3CN) and sodium borohydride (NaBH4) mixture (1:1 v/v 50 mM stock) to terminate the Schiff-base reaction, fix the Schiff-base Hb adducts and reduce the free reactive aldehyde. After mixing, the tubes were stored immediately at −80 °C until ready for analysis using cation-exchange HPLC (Hitachi D-7000 Series, Hitachi Instruments, Inc. San Jose, CA, USA) for Hb-compound adduct formation. The observed Hb adducts in %Hb modification were plotted as a function of time (h).
as §1

For “1-(2-(3-((6-(hydroxymethyl)pyridin-2-yl)methoxy)-5 methoxyphenyl)thiazolidin-4-yl)propan-1-one [Pro-7]”, the “%Hb O2 Affinity (P50 Shift)” value ([1]; 1 h) was 6.48 ± 1.54%, the “%Hb O2 Affinity (P50 Shift)” value ([1]; 3 h) was 13.57 ± 5.53% and the “%Hb O2 Affinity (P50 Shift)” value ([1]; 6 h) was 21.64 ± 10.93%. The “%Hb O2 Affinity (P50 Shift)” value ([1]; 12 h) was 41.04 ± 10.93%, the “%Hb O2 Affinity (P50 Shift)” value ([1]; 24 h) was 43.87 ± 3.22% and the “%Sickling Inhibition” value ([2]; 1 h) was 12.53%. The “%Sickling Inhibition” value ([2]; 3 h) was 40.76%, the “%Sickling Inhibition” value ([2]; 6 h) was 52.04% and the “degradation to release TD-7 (in words)” value ([3]; pH 2.0) was “very fast degradation”. The “time for formation of TD-7 from Pro-7 to be almost completed” value ([3]; pH 2.0) was no more than 1 h, the “Stability (absorbance of aldehyde peak at 349 nm)” value (“Stability” for short) ([3]; pH 2.0, 0 hr) was 1.22 ± 0.4 and the “Stability” value ([3]; pH 2.0, 1 hr) was 3.16 ± 0.2. The “Stability” value ([3]; pH 2.0, 2 hr) was 3.17 ± 0.09, the “Stability” value ([3]; pH 2.0, 3 hr) was 3.36 ± 0.03 and the “Stability” value ([3]; pH 2.0, 6 hr) was 3.27 ± 0.02. The “Stability” value ([3]; pH 2.0, 24 hr) was 3.05 ± 0.00, the “Stability” value ([3]; pH 7.4, 0 hr) was 0.14 ± 0.01 and the “Stability” value ([3]; pH 7.4, 1 hr) was 0.16 ± 0.00. The “Stability” value ([3]; pH 7.4, 2 hr) was 0.17 ± 0.00, the “Stability” value ([3]; pH 7.4, 3 hr) was 0.09 ± 0.09 and the “Stability” value ([3]; pH 7.4, 6 hr) was 0.22 ± 0.00. For the same substance, the “Stability” value ([3]; pH 7.4, 24 hr) was 0.49 ± 0.00, the “Stability” value ([3]; pH 7.4, 28 hr) was 0.55 ± 0.00 and the “Stability” value ([3]; pH 7.4, 48 hr) was 0.98 ± 0.02. The “Stability” value ([3]; pH 7.4, 56 hr) was 1.10 ± 0.03, the “Stability” value ([3]; pH 7.4, 72 hr) was 1.77 ± 0.07 and the “Stability” value ([3]; pH 7.4, 96 hr) was 2.59 ± 0.03. The “Stability” value ([3]; pH 8.0, 0 hr) was 0.14 ± 0.00, the “Stability” value ([3]; pH 8.0, 1 hr) was 0.12 ± 0.00 and the “Stability” value ([3]; pH 8.0, 2 hr) was 0.15 ± 0.00. For the same substance, the “Stability” value ([3]; pH 8.0, 3 hr) was 0.17 ± 0.00, the “Stability” value ([3]; pH 8.0, 6 hr) was 0.24 ± 0.01 and the “Stability” value ([3]; pH 8.0, 24 hr) was 0.64 ± 0.16. The “Stability” value ([3]; pH 8.0, 28 hr) was 1.00 ± 0.05, the “Stability” value ([3]; pH 8.0, 48 hr) was 1.33 ± 0.32 and the “Stability” value ([3]; pH 8.0, 72 hr) was 1.89 ± 0.04. The “Stability” value ([3]; pH 8.0, 96 hr) was 1.86 ± 0.01, the “degradation to release TD-7 (in words)” value ([3]; pHs 7.4 and 8.0) was “slow degradation” and the “time for TD-7 to be detected in a significant amount” value ([3]; pHs 7.4 and 8.0) was ~ 6 h. For the same substance, the “time to full dissociation into TD-7” value ([3]; pHs 7.4 and 8.0) was “approximately four days”, the “%Hb Modification (Hb Adduct)” value ([4]; 0 h) was 0.00 ± 0.00% and the “%Hb Modification (Hb Adduct)” value ([4]; 1 h) was 7.10 ± 4.40%. For the same substance, the “%Hb Modification (Hb Adduct)” value ([4]; 2 h) was 14.30 ± 6.80%, the “%Hb Modification (Hb Adduct)” value ([4]; 4 h) was 17.50 ± 7.10% and the “%Hb Modification (Hb Adduct)” value ([4]; 8 h) was 29.70 ± 10.9%. The “%Hb Modification (Hb Adduct)” value ([4]; 12 h) was 41.20 ± 15.8% and the “%Hb Modification (Hb Adduct)” value ([4]; 24 h) was 54.80 ± 21.8%.
